Values quoted from earlier work in patent US10906892B2, “LFA-1 inhibitor and methods of preparation and polymorph thereof” (NOVARTIS PHARMACEUTICALS CORPORATION, priority 2012, dated 2021).

Key:
[1] = background statement, no data given
[2] = target: Lymphocyte Function-Associated Antigen-1 (LFA-1) interactions with ICAM (Homo sapiens, UniProt P20701); details: background statement, no data given
Sequence of Lymphocyte Function-Associated Antigen-1 (LFA-1) interactions with ICAM (P20701 26-1170): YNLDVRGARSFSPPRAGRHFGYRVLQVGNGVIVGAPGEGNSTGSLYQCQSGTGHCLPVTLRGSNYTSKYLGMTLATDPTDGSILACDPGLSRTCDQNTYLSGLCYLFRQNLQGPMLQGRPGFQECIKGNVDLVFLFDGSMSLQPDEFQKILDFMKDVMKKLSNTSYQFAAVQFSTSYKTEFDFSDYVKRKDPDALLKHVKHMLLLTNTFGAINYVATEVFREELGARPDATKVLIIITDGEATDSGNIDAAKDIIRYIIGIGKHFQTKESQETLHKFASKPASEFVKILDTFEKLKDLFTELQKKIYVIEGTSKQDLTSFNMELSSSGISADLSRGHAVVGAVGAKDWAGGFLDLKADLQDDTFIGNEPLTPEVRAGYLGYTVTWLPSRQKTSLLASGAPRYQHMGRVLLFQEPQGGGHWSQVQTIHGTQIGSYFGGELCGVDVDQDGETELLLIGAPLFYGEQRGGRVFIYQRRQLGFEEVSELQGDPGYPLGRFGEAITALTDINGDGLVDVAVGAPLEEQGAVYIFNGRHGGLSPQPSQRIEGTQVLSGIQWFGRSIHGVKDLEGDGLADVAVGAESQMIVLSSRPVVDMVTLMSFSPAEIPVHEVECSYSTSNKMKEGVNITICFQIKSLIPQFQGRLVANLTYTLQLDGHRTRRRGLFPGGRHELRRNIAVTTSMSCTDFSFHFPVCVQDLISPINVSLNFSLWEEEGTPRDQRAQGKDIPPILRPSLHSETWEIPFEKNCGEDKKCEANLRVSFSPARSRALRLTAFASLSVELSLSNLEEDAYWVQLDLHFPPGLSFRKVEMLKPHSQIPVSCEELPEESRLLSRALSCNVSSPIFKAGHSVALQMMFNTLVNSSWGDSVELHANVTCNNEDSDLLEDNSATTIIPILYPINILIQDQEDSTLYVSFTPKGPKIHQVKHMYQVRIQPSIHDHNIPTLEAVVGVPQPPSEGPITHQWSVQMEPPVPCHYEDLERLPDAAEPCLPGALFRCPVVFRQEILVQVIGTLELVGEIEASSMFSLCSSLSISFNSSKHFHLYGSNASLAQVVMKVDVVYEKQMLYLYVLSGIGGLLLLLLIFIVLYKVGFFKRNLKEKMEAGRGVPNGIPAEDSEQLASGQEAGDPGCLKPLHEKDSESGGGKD
Sequence of Lymphocyte Function-Associated Antigen-1 (LFA-1) interactions with ICAM (P05107 23-769 partner): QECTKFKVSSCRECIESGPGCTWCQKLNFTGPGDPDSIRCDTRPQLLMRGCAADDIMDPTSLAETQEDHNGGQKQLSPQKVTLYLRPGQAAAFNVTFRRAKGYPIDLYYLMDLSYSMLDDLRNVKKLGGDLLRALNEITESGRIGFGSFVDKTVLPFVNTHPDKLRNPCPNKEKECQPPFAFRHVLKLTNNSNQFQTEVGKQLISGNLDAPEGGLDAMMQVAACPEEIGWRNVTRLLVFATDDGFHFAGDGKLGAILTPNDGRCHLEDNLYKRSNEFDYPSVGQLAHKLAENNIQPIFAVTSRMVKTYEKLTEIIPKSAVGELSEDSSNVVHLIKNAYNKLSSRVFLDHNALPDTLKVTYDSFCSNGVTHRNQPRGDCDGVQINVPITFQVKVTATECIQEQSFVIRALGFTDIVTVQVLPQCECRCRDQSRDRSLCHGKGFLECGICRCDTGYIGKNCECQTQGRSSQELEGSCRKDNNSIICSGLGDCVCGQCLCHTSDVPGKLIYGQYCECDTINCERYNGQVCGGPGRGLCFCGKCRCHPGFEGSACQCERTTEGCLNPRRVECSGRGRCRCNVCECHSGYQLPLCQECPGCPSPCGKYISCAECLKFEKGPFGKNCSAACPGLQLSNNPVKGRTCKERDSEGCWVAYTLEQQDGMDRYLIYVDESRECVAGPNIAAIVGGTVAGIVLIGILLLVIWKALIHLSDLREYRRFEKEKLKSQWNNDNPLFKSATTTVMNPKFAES

systemic clearance [1]: rapid systemic clearance
inhibition of LFA-1 interactions with ICAM [2]: effective inhibitor
SMILES: CS(=O)(=O)c1cccc(C[C@H](NC(=O)c2c(Cl)cc3c(c2Cl)CCN(C(=O)c2ccc4ccoc4c2)C3)C(=O)O)c1 [Formula I]
